These results are taken from ChEMBL document CHEMBL6153174, “Design and Synthesis of Novel Deazapurine DNMT 1 Inhibitors with In Vivo Efficacy in DLBCL” (J Med Chem, 2025).

As a reminder, the inhibition is the change of the read-out against control, counted positive when it falls. One may read the pIC50 as −log10 of the IC50, conventionally taken in molar units.

The target of experiment [1] is DNA (cytosine-5)-methyltransferase 1 (Homo sapiens, UniProt P26358). Description: Inhibition of DNMT1 (unknown origin) at 5 uM preincubated for 15 mins followed by substrate and [3H-SAM] addition and measured after 60 mins by microbeta analysis relative to control. The following applies: time 75.0 min.
The target in experiment [2] is T1, DNA (cytosine-5)-methyltransferase 3A (Homo sapiens, UniProt Q9Y6K1). Kind of experiment: Inhibition of DNMT3A (unknown origin) at 5 uM preincubated for 15 mins followed by substrate and [3H-SAM] addition and measured after 60 mins by microbeta analysis relative to control. The conditions noted are these: time 75.0 min.
Experiment [3] concerns the target DNA (cytosine-5)-methyltransferase 3B (Homo sapiens, UniProt Q9UBC3). Description: Inhibition of DNMT3B (unknown origin) at 5 uM preincubated for 15 mins followed by substrate and [3H-SAM] addition and measured after 60 mins by microbeta analysis relative to control. The following applies: time 75.0 min.
Experiment [4] deals with T2, Histone-lysine N-methyltransferase EHMT2 (Homo sapiens) (UniProt Q96KQ7).
T2 sequence (whole entry): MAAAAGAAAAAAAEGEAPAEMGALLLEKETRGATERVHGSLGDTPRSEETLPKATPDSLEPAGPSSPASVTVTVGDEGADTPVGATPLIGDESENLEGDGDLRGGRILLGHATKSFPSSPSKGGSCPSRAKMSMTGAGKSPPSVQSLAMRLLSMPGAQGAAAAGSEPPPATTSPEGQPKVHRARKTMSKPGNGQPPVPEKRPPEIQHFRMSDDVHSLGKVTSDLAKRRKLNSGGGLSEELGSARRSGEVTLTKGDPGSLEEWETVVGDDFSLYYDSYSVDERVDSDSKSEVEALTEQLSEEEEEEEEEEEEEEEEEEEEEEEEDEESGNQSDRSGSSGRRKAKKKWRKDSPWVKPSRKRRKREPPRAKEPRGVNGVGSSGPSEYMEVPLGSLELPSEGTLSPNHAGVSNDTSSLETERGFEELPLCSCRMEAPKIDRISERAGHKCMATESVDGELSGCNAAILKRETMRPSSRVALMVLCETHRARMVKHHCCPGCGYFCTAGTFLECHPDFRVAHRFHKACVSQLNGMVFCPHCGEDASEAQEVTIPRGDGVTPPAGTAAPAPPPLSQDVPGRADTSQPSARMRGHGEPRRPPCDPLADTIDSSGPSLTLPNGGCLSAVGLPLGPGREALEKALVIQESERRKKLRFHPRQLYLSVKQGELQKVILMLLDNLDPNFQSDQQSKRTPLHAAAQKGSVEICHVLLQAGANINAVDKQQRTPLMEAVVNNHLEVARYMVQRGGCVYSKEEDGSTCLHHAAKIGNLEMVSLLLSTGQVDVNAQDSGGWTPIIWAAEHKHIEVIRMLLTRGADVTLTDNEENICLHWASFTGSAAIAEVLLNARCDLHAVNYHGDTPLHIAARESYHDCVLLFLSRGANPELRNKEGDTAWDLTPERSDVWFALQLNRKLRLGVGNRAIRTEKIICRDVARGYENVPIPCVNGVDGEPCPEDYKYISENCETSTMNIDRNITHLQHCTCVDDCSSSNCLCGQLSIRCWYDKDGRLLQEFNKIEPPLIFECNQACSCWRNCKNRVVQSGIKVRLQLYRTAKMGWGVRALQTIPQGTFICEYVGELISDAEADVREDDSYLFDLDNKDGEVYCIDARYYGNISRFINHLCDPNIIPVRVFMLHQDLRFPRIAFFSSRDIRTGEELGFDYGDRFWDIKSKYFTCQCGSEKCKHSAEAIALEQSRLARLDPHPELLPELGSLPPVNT
Description: Inhibition of G9a (unknown origin) at 5 uM preincubated for 15 mins followed by substrate and [3H-SAM] addition and measured after 60 mins by microbeta analysis relative to control. The following applies: time 75.0 min.

The test system of experiment [5] is MV4-11. Description: Antiproliferative activity against human MV4-11 cells assessed as inhibition of cell viability measured after 72 hrs by MTT assay. In kind it is functional, cell-based. The conditions noted are these: MV4-11, 72 h. (Formazan colour is commonly taken as a measure of viable cells.)
In experiment [6] the test system is U-937. Kind of experiment: Antiproliferative activity against human U-937 cells assessed as inhibition of cell viability measured after 72 hrs by MTT assay. In kind it is functional, cell-based. The conditions noted are these: U-937, 72 h.
For experiment [7], the target named is T1, DNA (cytosine-5)-methyltransferase 3A. Description: Inhibition of DNMT3A (unknown origin) preincubated for 15 mins followed by substrate and [3H-SAM] addition and measured after 60 mins by microbeta analysis.

pIC50: −log10 of the molar value.

Chain of DNA (cytosine-5)-methyltransferase 1 (P26358 whole entry): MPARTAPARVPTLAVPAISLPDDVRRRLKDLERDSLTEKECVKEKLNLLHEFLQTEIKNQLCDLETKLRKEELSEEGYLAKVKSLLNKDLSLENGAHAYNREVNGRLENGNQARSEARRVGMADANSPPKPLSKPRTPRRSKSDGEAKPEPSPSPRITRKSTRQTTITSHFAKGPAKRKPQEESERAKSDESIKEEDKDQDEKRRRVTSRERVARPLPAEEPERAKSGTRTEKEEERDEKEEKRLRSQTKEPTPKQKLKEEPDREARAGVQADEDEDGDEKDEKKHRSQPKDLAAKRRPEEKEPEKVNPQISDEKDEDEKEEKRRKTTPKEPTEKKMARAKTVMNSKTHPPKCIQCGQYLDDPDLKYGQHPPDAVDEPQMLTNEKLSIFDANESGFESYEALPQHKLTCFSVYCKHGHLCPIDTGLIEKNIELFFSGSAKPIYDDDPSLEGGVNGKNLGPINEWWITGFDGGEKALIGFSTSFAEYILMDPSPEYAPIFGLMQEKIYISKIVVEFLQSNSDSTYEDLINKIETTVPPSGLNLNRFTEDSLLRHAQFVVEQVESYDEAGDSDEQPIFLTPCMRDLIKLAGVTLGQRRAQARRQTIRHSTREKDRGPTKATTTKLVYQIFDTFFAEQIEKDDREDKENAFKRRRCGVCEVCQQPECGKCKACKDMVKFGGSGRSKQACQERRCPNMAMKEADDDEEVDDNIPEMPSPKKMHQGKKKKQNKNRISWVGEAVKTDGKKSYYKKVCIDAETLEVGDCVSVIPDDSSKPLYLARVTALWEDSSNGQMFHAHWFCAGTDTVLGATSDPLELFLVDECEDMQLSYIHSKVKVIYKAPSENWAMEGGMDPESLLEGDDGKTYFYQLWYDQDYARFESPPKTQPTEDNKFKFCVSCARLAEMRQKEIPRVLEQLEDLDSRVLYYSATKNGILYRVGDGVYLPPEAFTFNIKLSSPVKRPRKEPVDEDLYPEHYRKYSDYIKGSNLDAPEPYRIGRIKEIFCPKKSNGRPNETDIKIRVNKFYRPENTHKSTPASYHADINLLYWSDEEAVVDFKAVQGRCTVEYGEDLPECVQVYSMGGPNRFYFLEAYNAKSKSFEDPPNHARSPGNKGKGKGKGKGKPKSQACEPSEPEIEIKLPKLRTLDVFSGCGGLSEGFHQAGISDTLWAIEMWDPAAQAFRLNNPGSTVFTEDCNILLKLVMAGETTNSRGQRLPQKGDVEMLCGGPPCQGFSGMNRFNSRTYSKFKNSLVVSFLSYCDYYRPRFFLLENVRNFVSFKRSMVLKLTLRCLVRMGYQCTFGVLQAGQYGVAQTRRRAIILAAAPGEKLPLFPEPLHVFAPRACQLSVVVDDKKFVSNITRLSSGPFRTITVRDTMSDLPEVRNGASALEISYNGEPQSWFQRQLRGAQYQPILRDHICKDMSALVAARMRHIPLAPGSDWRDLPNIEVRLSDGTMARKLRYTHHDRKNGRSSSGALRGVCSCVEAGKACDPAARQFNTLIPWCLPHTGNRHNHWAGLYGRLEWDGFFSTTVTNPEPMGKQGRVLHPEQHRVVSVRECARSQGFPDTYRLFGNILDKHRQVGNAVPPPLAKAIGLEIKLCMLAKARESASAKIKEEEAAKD
T1 sequence (Q9Y6K1 whole entry, looked up): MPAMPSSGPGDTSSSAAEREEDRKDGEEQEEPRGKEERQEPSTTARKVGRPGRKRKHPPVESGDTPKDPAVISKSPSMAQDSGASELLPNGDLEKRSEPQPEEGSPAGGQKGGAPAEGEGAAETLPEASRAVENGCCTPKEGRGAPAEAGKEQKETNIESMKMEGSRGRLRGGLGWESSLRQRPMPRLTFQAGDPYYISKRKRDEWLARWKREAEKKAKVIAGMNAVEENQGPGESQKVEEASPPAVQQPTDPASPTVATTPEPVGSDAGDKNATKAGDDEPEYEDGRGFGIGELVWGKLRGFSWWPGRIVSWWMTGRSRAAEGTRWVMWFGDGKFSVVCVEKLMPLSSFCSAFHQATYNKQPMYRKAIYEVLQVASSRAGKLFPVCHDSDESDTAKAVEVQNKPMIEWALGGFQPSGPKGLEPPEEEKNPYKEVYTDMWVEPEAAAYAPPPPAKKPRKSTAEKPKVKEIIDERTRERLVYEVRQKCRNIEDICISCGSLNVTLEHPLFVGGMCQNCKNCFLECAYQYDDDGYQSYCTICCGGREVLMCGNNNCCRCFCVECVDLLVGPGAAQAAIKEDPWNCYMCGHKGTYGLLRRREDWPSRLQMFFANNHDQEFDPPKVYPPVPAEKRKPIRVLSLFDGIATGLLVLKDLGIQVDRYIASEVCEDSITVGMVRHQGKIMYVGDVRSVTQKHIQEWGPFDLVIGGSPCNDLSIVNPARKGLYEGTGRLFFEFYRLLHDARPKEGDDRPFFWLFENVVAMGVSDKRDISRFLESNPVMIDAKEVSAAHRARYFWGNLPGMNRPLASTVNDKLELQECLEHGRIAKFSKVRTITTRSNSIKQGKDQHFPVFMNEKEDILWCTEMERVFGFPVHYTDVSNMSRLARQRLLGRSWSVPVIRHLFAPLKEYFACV

Regarding `Cc1ccc(-c2cc(NCC3CCN(C(=O)OC(C)(C)C)CC3)c3cnn(CCCN4CCCC4)c3c2)o1`, the inhibition in experiment [1] amounted to 1.6%; in experiment [2], 17%; in experiment [3] it was 11%; in experiment [4], 12%. Moreover, the pIC50 in experiment [5] was 5.97; in experiment [6] it was 5.49.

`CN1CCC(Nc2nc(N3CCCCC3)nc3c2ccn3CCCN2CCCC2)CC1`: the inhibition in experiment [1] was 20%; in experiment [2] it was 6.9%; in experiment [3], -9.7%; in experiment [4], 1.9%. The pIC50 in experiment [5] is 5.02; in experiment [6], 4.75.

Regarding `Cc1ccc(-c2cc(NCC3CCN(Cc4ccccc4)CC3)c3cnn(CCCN4CCCC4)c3c2)o1`, the results for the inhibition in experiment [1], in experiment [2] and in experiment [4] were 61%, 25% and 14%, respectively. Further, the pIC50 in experiment [5] is 6.00; in experiment [6] it was 5.80.

Consider `CN1CCC(Nc2nc(N3CCN(C)CC3)nc3c2ccn3CCCN2CCCC2)CC1`, for which the inhibition was 39% in experiment [1], 11% in experiment [2], 11% in experiment [3] and -1.9% in experiment [4]. Moreover, the values for the pIC50 in experiment [5], in experiment [6] and in experiment [7] were 4.95, 4.51 and 5.55, respectively.

With `CN1CCC(Nc2nc(N3CCOCC3)nc3c2ccn3CCCN2CCCC2)CC1`, the inhibition in experiment [1] is 25%; in experiment [2], -1.8%; in experiment [3] it was 15%; in experiment [4] it was 7.2%. Besides, the pIC50 in experiment [5] was 4.59; in experiment [6], less than 4.00.

Consider `CN1CCC(Nc2nc(N3CCN(C)CC3)nc3c2ccn3CCCN2CCOCC2)CC1`, for which the inhibition in experiment [1] came out at 25%; in experiment [2], 9.5%; in experiment [3], 16%; in experiment [4], 12%. In addition, the pIC50 in experiment [5] is 4.62; in experiment [6], 4.23.

Consider `CN1CCC(Nc2nc(-c3cn[nH]c3)nc3c2ccn3CCCN2CCCC2)CC1`, for which the inhibition in experiment [1] was 35%; in experiment [2], 7.2%; in experiment [3], -6.9%; in experiment [4], -2%. In addition, the pIC50 in experiment [5] was less than 4.00; in experiment [6], less than 4.00; in experiment [7], 5.15.

Consider `CN1CCC(Nc2nc(N3CCCCC3)nc3c2ccn3CCCN2CCOCC2)CC1`, for which the inhibition was 21% in experiment [1], 3.7% in experiment [2], -0.3% in experiment [3] and 12% in experiment [4]. Also, the results for the pIC50 in experiment [5] and in experiment [6] were 4.62 and 4.39, respectively.

With `CC(C)(C)OC(=O)N1CCC(CNc2cc(-c3ccc(F)cc3)cc3c2cnn3CCCN2CCCC2)CC1`, the inhibition came out at 32% in experiment [1], 6.8% in experiment [2] and 9.1% in experiment [3]. For the same molecule, the results for the pIC50 in experiment [5] and in experiment [6] were 5.92 and 5.97, respectively.

In the case of `CC(C)N1CCC(Nc2nc(N3CCOCC3)nc3c2ccn3CCCN2CCCC2)CC1`, the inhibition was 6.7% in experiment [1], 2.6% in experiment [2], -9.7% in experiment [3] and -1.4% in experiment [4]. The results for the pIC50 in experiment [5] and in experiment [6] were 4.39 and less than 4.00, respectively.

As for `CN1CCC(Nc2nc(-c3ccc(F)nc3)nc3c2ccn3CCCN2CCOCC2)CC1`, the inhibition in experiment [1] came out at 17%; in experiment [2], 16%; in experiment [3] it was 0.2%; in experiment [4], 11%. Moreover, the pIC50 in experiment [5] is 4.97; in experiment [6], 5.16.

Regarding `CN1CCN(c2cc(NCC3CCN(C(=O)C4CCCC4)CC3)c3cnn(CCCN4CCOCC4)c3c2)CC1`, the pIC50 in experiment [5] was 5.06.

`Cc1ccc(-c2cc(NC3CCN(C(C)C)CC3)c3cnn(CCCN4CCCC4)c3c2)o1`: the inhibition in experiment [1] was 56%; in experiment [2], 13%; in experiment [3], -9.4%; in experiment [4], 12%. Besides, the pIC50 in experiment [5] is 4.92; in experiment [6] it was 4.91.

`CN1CCC(Nc2nc(-c3ccccc3)nc3c2ccn3CCCN2CCCC2)CC1`: the inhibition is 45% in experiment [1], 8.6% in experiment [2], 6.6% in experiment [3] and 1.1% in experiment [4]. Also, the pIC50 in experiment [5] is 5.18; in experiment [6] it was 4.74; in experiment [7], 5.13.

For `CN1CCC(Nc2nc(N3CCCN(C)CC3)nc3c2ccn3CCCN2CCCC2)CC1`, the inhibition in experiment [1] was found to be 31%; in experiment [4], 2.9%. Further, the results for the pIC50 in experiment [5], in experiment [6] and in experiment [7] were 4.58, 4.36 and 5.21, respectively.

For the molecule `CC(C)N1CCC(Nc2nc(N3CCCCC3)nc3c2ccn3CCCN2CCCC2)CC1`, the inhibition in experiment [1] was 13%; in experiment [2], 0.8%; in experiment [3] it was 11%; in experiment [4], 6.5%. Further, the figures for the pIC50 in experiment [5] and in experiment [6] were 4.91 and 4.84, respectively.

As to `CC(C)N1CCC(Nc2nc(N3CCN(C)CC3)nc3c2ccn3CCCN2CCCC2)CC1`, the inhibition in experiment [1] was 20%; in experiment [2], 6.6%; in experiment [3], 4.3%; in experiment [4], 3.6%. Besides, the values for the negative-log IC50 (pIC50) in experiment [5] and in experiment [6] were 5.54 and 4.81, respectively.

Turning to `CC(C)N1CCC(Nc2nc(N3CCN(C)CC3)nc3c2ncn3CCCN2CCCC2)CC1`, the inhibition in experiment [1] was 17%; in experiment [2], -6.9%. For the same molecule, the pIC50 in experiment [5] is 5.08; in experiment [6], 4.85.

For the molecule `Cc1ccc(-c2cc(NCC3CCNCC3)c3cnn(CCCN4CCCC4)c3c2)o1`, the inhibition in experiment [1] amounted to 41%; in experiment [2], 20%; in experiment [4], 22%. Also, the results for the negative-log IC50 (pIC50) in experiment [5] and in experiment [6] were 5.63 and 5.05, respectively.

`CN1CCC(Nc2nc(N3CCCC3)nc3c2ccn3CCCN2CCCC2)CC1`: the inhibition was determined as 25% in experiment [1], 4.2% in experiment [2] and 1.3% in experiment [4]. The pIC50 in experiment [5] was 4.96; in experiment [6], 4.33.

On to `COc1ccc(-c2cc(NCC3CCN(Cc4ccccc4)CC3)c3cnn(CCCN4CCCC4)c3c2)cc1`, for which the inhibition in experiment [1] amounted to 48%; in experiment [2], 24%; in experiment [3], 1.2%. In addition, the pIC50 was 5.84 in experiment [5] and 5.99 in experiment [6].

Turning to `CN1CCN(c2cc(NCC3CCN(C(=O)OC(C)(C)C)CC3)c3cnn(CCCN4CCOCC4)c3c2)CC1`, the inhibition came out at 98% in experiment [1], 19% in experiment [2], 31% in experiment [3] and 10% in experiment [4]. Further, the pIC50 in experiment [5] was 4.66; in experiment [6], 4.62.

Take `CN1CCC(Nc2nc(-c3ccc(C(F)(F)F)cc3)nc3c2ccn3CCCN2CCCC2)CC1`: the inhibition worked out at 42% in experiment [1], 9.7% in experiment [2] and 1.1% in experiment [3]. Moreover, the pIC50 is 5.94 in experiment [5] and 6.01 in experiment [6].

`CC(C)N1CCC(Nc2nc(N3CCCCC3)nc3c2ncn3CCCN2CCCC2)CC1`: the inhibition is 12% in experiment [1], 4.3% in experiment [2], 9.9% in experiment [3] and 7.6% in experiment [4]. Besides, the pIC50 in experiment [5] and in experiment [6] was less than 4.00 each time.
